Measurements as given in US6384222B1, “N-benzenesulfonyl-L-proline compounds, preparation method and method for using the compounds in therapy” (Fournier Industrie et Sante, priority 1997, dated 2002).

Legend:
[1] = target: T1, bradykinin B2 receptor (Cavia porcellus, UniProt O70526); test: Inhibition of [3H]-bradykinin binding to guinea-pig ileum membranes; details: test compound 10^-6 M, [3H]-bradykinin 120 pM, 90 min at 20° C.
T1 construct: Ileum segments are isolated from male guinea-pigs; from tissue; host or cells: guinea-pig ileum (Dunkin-Hartley strain; animals from Iffa Credo)
T1 sequence (O70526 1-372): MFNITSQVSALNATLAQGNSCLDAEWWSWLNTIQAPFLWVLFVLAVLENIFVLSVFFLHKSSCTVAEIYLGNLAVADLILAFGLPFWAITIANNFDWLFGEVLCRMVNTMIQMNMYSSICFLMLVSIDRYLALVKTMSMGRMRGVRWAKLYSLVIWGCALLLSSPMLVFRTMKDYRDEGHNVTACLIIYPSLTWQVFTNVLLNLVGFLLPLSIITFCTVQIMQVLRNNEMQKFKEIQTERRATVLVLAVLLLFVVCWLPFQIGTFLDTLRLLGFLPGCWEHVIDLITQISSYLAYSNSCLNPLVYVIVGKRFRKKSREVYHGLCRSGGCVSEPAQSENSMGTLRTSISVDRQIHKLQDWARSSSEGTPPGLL
Experimental: The following pharmacological test is used: Ileum segments are isolated from male guinea-pigs [of the Dunkin-Hartley strain (Iffa Credo, l'Arbresle, France)] and ground in the following TES buffer: TES 25 mM, 1,10-phenanthroline 1 mM (pH 6.8), bacitracin 140 μg/ml, BSA 1 g/l. The membranes are then isolated by centrifugation (18,000 rpm; 20 min 4° C.). The binding studies are carried out in this TES buffer using [^3H]-bradykinin (120 pM) and 50 μg of membrane protein per test (final volume 500 μl) with an equilibrium time of 90 min at 20° C. The percentage inhibition of the binding of [^3H]-bradykinin is then determined in the presence of one of the test compounds according to the invention at a concentration of 10^−6 M.
The results obtained from these tests (shown as “activity”) are collated in Table I below with reference to the Examples given in the description. In this Table, the meaning of the heterocyclic radicals Q is given in the notes and the nature of the salts is indicated by the abbreviations Chl in the case of a hydrochloric acid salt and Ms in the case of a methanesulfonic acid salt.

[2] = target: T1, bradykinin B2 receptor; test: Antagonism of bradykinin-induced B2 receptor activation on guinea-pig ileum (pKB, Pruneau et al.); details: antagonism of bradykinin at B2 receptor
Source text: The compounds according to the invention have an antagonistic effect towards the bradykinin B2 receptor (they inhibit the activation of the B2 receptors which is induced by bradykinin). […] The experimental results, evaluated by the pKB described in the above publication, are reported in the summary Table.

CS(=O)(=O)O.CS(=O)(=O)O.Cc1cc(=O)n2cccc(OCc3c(Cl)ccc(S(=O)(=O)N4CCC[C@H]4C(=O)NCCCNC(=O)c4ccc(C(=N)N)cc4)c3Cl)c2n1 [Example 30, 1-[[3-[[2-Methyl-4H-pyrido[1,2-a]pyrimidin-9-yl-4-one]oxymethyl]-2,4-dichlorophenyl]sulfonyl]-N-[3-[[4-(aminoiminomethyl)benzoyl]amino]propyl]-2(S)-pyrrolidinecarboxamide Bis(methanesulfonate)]
Activity % (percentage inhibition of the binding of [3H]-bradykinin) [1]: 99.3%
pKB [2]: 7.9

CS(=O)(=O)O.CS(=O)(=O)O.Cc1cc(=O)n2cccc(OCc3c(Cl)ccc(S(=O)(=O)N4CCC[C@H]4C(=O)N4CCN(C(=O)c5ccc(C(=N)N)cc5)CC4)c3Cl)c2n1 [Example 33]
Activity % (percentage inhibition of the binding of [3H]-bradykinin) [1]: 96%
pKB [2]: 7.8

CS(=O)(=O)O.CS(=O)(=O)O.Cc1nc2c(OCc3c(Cl)ccc(S(=O)(=O)N4CCC[C@H]4C(=O)NCCCNC(=O)c4ccc(C(=N)N)cc4)c3Cl)cccn2c1Cl [Example 38, 1-[[3-[[3-Chloro-2-methylimidazo[1,2-a]pyridin-8-yl]oxymethyl]-2,4-dichlorophenyl]sulfonyl]-N-[3-[[4-(aminoimiomethyl)benzoyl]amino]propyl]-2(S)-pyrrolidinecarboxamide Bis(methanesulfonate)]
Activity % (percentage inhibition of the binding of [3H]-bradykinin) [1]: 100%

CS(=O)(=O)O.CS(=O)(=O)O.Cc1nc2c(OCc3c(Cl)ccc(S(=O)(=O)N4CCC[C@H]4C(=O)N4CCN(C(=O)c5ccc(C(=N)N)cc5)CC4)c3Cl)cccn2c1Cl [Example 41]
Activity % (percentage inhibition of the binding of [3H]-bradykinin) [1]: 100%

CC(=O)c1c(C)nc2c(OCc3c(Cl)ccc(S(=O)(=O)N4CCC[C@H]4C(=O)NCCCNC(=O)c4ccc(C(=N)N)cc4)c3Cl)cccn12.CS(=O)(=O)O.CS(=O)(=O)O [Example 44, 1-[[3-[[3-Acetyl-2-methylimidazo[1,2-a]pyridin-8-yl]oxymethyl]-2,4-dichlorophenyl]sulfonyl]-N-[3-[[4-(aminoiminomethyl)benzoyl]amino]propyl]-2(S)-pyrrolidinecarboxamide Bis(methanestilfonate)]
Activity % (percentage inhibition of the binding of [3H]-bradykinin) [1]: 100%
